The target in assay [1] is T1, human mAChR M1 (Homo sapiens, UniProt P11229).
T1 sequence (P11229 1-460): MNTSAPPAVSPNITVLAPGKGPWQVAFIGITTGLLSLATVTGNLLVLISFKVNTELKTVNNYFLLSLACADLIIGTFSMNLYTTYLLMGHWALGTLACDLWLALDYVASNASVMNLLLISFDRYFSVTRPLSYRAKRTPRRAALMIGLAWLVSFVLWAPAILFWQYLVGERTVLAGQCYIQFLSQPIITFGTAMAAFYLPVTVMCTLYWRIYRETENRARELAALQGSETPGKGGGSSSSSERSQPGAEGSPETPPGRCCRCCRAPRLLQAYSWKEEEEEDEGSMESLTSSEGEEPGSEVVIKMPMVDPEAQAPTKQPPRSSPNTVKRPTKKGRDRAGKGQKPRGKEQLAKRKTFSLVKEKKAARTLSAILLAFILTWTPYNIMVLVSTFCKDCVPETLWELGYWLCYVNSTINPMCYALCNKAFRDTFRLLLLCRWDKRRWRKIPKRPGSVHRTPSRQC
Description: mAChR M1 cell-based functional assay (calcium mobilization), agonist activity upon compound addition alone. The settings on record: CHO-K1 cells expressing hM1; for EC50: calcium mobilization upon compound addition, no acetylcholine; for Emax: compound alone, relative to the maximum for acetylcholine. The method, boiled down: (§1)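 Calcium mobilization in CHO-K1 cells stably expressing hM1, Fluo-4 loaded; 11-point 1:3 compound series added at 4 s, acetylcholine EC20 at 144 s, kinetic fluorescence ratio at 1 Hz. Agonism: rise on compound alone, Emax relative to acetylcholine maximum; PAM: potentiation of EC20 response; four-parameter logistic fits.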
(Calcium flux is commonly read through the fluorescence of an indicator in the cells.)

Assay [2] has as its target T1, human mAChR M1. Description: mAChR M1 cell-based functional assay (calcium mobilization), PAM activity: increase in the EC20 acetylcholine response. Particulars: CHO-K1 cells expressing hM1; calcium flux (Fluo-4); potentiation of EC20 acetylcholine response. An outline of the steps:
as §1

The term EC50 denotes the midpoint of the concentration-response curve. In general, Emax refers to the size of the effect at its maximum, as opposed to the concentration needed.

Some results are limits rather than exact numbers.

Consider `Cc1ccc(Cc2cc(C(=O)N[C@H]3CCC[C@@H]3O)nc(-c3ccn(C)n3)c2C)cn1` [Compound 67, N-((1S,2S)-2-hydroxycyclopentyl)-5-methyl-6-(1-methyl-1H-pyrazol-3-yl)-4-((6-methylpyridin-3-yl)methyl)picolinamide], for which, at human mAChR M1 [1], the EC50 was above 10 µM and the Emax was below 5%. For the same molecule, at human mAChR M1 [2], the Emax was found to be 38%.
In the case of `Cc1c(Cc2ccc(-c3ccn(C)n3)cc2)cc(C(=O)N[C@H]2CC[C@@H]2O)nc1-c1ccn(C)n1` [Compound 13, N-((1S,2S)-2-hydroxycyclobutyl)-5-methyl-6-(1-methyl-1H-pyrazol-3-yl)-4-(4-(1-methyl-1H-pyrazol-3-yl)benzyl)picolinamide], on human mAChR M1 [1], the EC50 is above 10 µM and the maximal effect (Emax) was below 5%. Moreover, on human mAChR M1 [2], the concentration giving a half-maximal response (EC50) stood at 7.99 µM and the maximum response (Emax) turned out to be 80%.
For `Cn1cc(-c2ccc(Cc3cc(C(=O)NC4CCOCC4(C)C)nc(-c4ccn(C)n4)c3)cn2)cn1` (centres unmarked) [Compound 8, N-(3,3-dimethyltetrahydro-2H-pyran-4-yl)-6-(1-methyl-1H-pyrazol-3-yl)-4-((6-(1-methyl-1H-pyrazol-4-yl)pyridin-3-yl)methyl)picolinamide] the same measures were above 10 µM, below 5%, 8.01 µM and 75%.
With `Cc1c(Cc2ccc(-n3cccn3)cc2)cc(C(=O)NC[C@H]2CCCO2)nc1-c1ccn(C)n1` [Compound 63, (R)-4-(4-(1H-pyrazol-1-yl)benzyl)-5-methyl-6-(1-methyl-1H-pyrazol-3-yl)-N-((tetrahydrofuran-2-yl)methyl)picolinamide], the concentration for a half-maximal effect (EC50) at human mAChR M1 [1] is above 10 µM. Further, the figures for the Emax at human mAChR M1 [1] and at human mAChR M1 [2] were below 5% and 57%, respectively.
As for `Cc1c(Cc2ccc(-c3ccn(C)n3)cc2)cc(C(=O)NC2CCOCC2(C)C)nc1-c1ccn(C)n1` (centres unmarked) [Compound 17, N-(3,3-dimethyltetrahydro-2H-pyran-4-yl)-5-methyl-6-(1-methyl-1H-pyrazol-3-yl)-4-(4-(1-methyl-1H-pyrazol-3-yl)benzyl)picolinamide], the EC50 is above 10 µM on human mAChR M1 [1] and 2.26 µM at human mAChR M1 [2]. The Emax on human mAChR M1 [1] was below 5%; on human mAChR M1 [2], 86%.
`Cc1nc(-c2ccc(Cc3cc(C(=O)N[C@H]4CCCC[C@@H]4O)nc(-n4cccn4)c3)cc2)co1` [Compound 22, N-((1S,2S)-2-hydroxycyclohexyl)-4-(4-(2-methyloxazol-4-yl)benzyl)-6-(1H-pyrazol-1-yl)picolinamide]: the values for the EC50 on human mAChR M1 [1] and on human mAChR M1 [2] were at least 10 µM and 0.634 µM, respectively. Moreover, the values for the Emax on human mAChR M1 [1] and on human mAChR M1 [2] were 11% and 86%, respectively.
The corresponding values for `Cc1c(Cc2ccc(-n3cccn3)cc2)cc(C(=O)NC[C@@H]2CCCO2)nc1-c1ccn(C)n1` [Compound 62, (S)-4-(4-(1H-pyrazol-1-yl)benzyl)-5-methyl-6-(1-methyl-1H-pyrazol-3-yl)-N-((tetrahydrofuran-2-yl)methyl)picolinamide] are above 10 µM, 4.63 µM, below 5% and 77%.

For the origin of these results see patent US11851406B2, “Positive allosteric modulators of the muscarinic acetylcholine receptor M1” (Vanderbilt University, priority 2018, dated 2023).
